Consider twelve molecules from paper PMC11740726 (PNAS Nexus, 2025).

Broadly, the half-life is the time needed for the level to fall by half in the phase considered. The term IC50 denotes the concentration that inhibits the measured activity by half.

Data set [1] has as its system SARS-CoV-2^WK-521. The experiment in a line: microbe, parasite or virus in culture. In kind it is cell-based.
The test system of another data set is SARS-CoV-2^BQ.1.1. The experiment in a line: microbe, parasite or virus in culture. It is filed as cell-based. Conditions: Severe acute respiratory syndrome coronavirus 2, read-out: SARS-CoV-2^BQ.1.1 in HeLa^hACE2-TMPRSS2 cells EC50.
For data set [2], the system named is SARS-CoV-2 Omicron XBB.1.5. The experiment in a line: microbe, parasite or virus in culture. In kind it is cell-based. The settings on record: for EC50: Severe acute respiratory syndrome coronavirus 2, read-out: EC50 in the presence of 1 mg/mL human AAG.
Data set [3] has as its system SARS-CoV-2^Omicron EG.5.1. The experiment in a line: microbe, parasite or virus in culture. In kind it is cell-based. The settings on record: Severe acute respiratory syndrome coronavirus 2, read-out: anti-SARS-CoV-2^Omicron EG.5.1 activity EC50 in primary human nasal epithelial (HNEp) cells.
In data set [4] the test system is SARS-CoV-2^WK-521. Nature of the data set: microbe, parasite or virus in culture. It is filed as cell-based. The settings on record: Severe acute respiratory syndrome coronavirus 2, read-out: EC50, SARS-CoV-2^WK-521, HeLa^hACE2-TMPRSS2.
The nature of data set [5]: in vivo. Conditions: PXB (human liver-chimeric), mouse, po, 10 mg/kg.
The nature of the next data set: in vitro. The settings on record: African green monkey.
For a further data set, the target named is SARS-CoV-2 M^pro (Severe acute respiratory syndrome coronavirus 2, UniProt P0DTD1). Nature of the data set: SARS-CoV-2 M^pro enzyme assay (cell-free, fluorogenic substrate). In kind it is biochemical. The settings on record: authentic M^pro; mean ± 1 SD, three assays.
Another data set relates to WP2 uvrA. The settings on record: Escherichia coli.
The subject of a further data set is TA100. Conditions: Salmonella typhimurium.
Another data set concerns TA98. The settings on record: Salmonella typhimurium.
The subject of the next data set is SARS-CoV-2^XBB1.5. Also on record: species or system B6.Cg-Tg(K18-hACE2)2-Prlmn/J-transgenic mice. Conditions: mouse, in vivo.
The next data set has as its system TA1537. Conditions: Salmonella typhimurium.
The target in the next data set is human cathepsin L (Homo sapiens, UniProt P07711). The experiment in a line: biochemical.
human cathepsin L, sequence (P07711 114-333): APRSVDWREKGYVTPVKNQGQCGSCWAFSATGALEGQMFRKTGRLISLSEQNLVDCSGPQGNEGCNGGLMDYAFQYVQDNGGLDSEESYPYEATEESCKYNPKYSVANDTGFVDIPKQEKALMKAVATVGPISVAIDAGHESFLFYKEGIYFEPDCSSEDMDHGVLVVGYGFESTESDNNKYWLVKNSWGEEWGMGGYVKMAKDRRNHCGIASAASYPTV
For another data set, the system named is human calpain. It is filed as biochemical.
For data set [6], the system named is primary human nasal epithelial cells.
In data set [7] the test system is four Salmonella typhimurium strains (TA100, TA1535, TA98, TA1537) and one Escherichia coli strain (WP2 uvrA).
Data set [8] in a line: in vivo. The settings on record: ICR, mouse, po, 10 mg/kg.
[9] abbreviates: Severe acute respiratory syndrome coronavirus 2, Vero C1008, read-out: EC50, SARS-CoV-2^WK-521, VeroE6.
[10] abbreviates: Severe acute respiratory syndrome coronavirus 2, Vero C1008, read-out: EC50, SARS-CoV-2^WK-521, VeroE6 +2μM CP-100356.
The mark [11] stands for this setting: Severe acute respiratory syndrome coronavirus 2, Vero C1008, read-out: SARS-CoV-2^WK-521 in VeroE6 cells EC50.
The mark [12] stands for this setting: read-out: EC50 against SARS-CoV-2^WK-521 in VeroE6 cells in the presence of CP100356.

Where two headings read alike, the source gives them in different places.

For the molecule `[N-]=[N+]=[N-].[Na+]` [NaN3, SodiumAzide], the “Number of colonies / plate (positive control)” value (“Number of colonies / plate” below) in the data set on TA1535 turned out to be 29.3 ± 9.1 colonies / plate.

For the molecule `CC(C)(C)[C@H](NC(=O)C(F)(F)F)C(=O)N1C[C@H]2[C@@H]([C@H]1C(=O)N[C@H](C#N)C[C@@H]1CCNC1=O)C2(C)C` [Nirmatrelvir, reference compound], the EC50 was 1140 ± 190 nM in the data set on SARS-CoV-2^WK-521 [1] (setting [9]); 20 ± 10 nM with SARS-CoV-2^WK-521 [1] (setting [10]); 770 ± 180 nM in the data set on SARS-CoV-2^WK-521 [1] (setting [11]); 36.3 nM with SARS-CoV-2^WK-521 [1] (setting [12]); 51 ± 16 nM in the data set with SARS-CoV-2^BQ.1.1; 160 nM in data set [2]. In addition, the EC50 in data set [3] came to 11.1 µM; in the data set with SARS-CoV-2^WK-521 [4], 20 nM. In addition, the “effect of 5 mg/mL human AAG on antiviral activity” value in data set [2] is reported as “further reduced the activity”. Also, the half-life in “in vivo [5]” is 85.8 min. This molecule registered a CC50 in “in vitro” of over 100 µM.

With `Cn1cnc(Cn2c(=O)[nH]/c(=N\c3cc4cn(C)nc4cc3Cl)n(Cc3cc(F)c(F)cc3F)c2=O)n1` [Ensitrelvir, reference compound], the EC50 in the data set with SARS-CoV-2^WK-521 [1] (setting [10]) worked out at 30 nM. The molecule also registered a CC50 in the data set “in vitro” of over 100 µM.

Take `CC(C)(C)[C@H](NC(=O)C(F)(F)F)C(=O)N1C[C@H]2[C@@H]([C@H]1C(=O)N[C@@H](C[C@@H]1CCNC1=O)C(=O)c1nc3c(F)cccc3s1)C2(C)C` [TKB245]: the EC50 was 20 ± 7 nM in the data set with SARS-CoV-2^WK-521 [1] (setting [11]) and 3.5 nM in the data set with SARS-CoV-2^WK-521 [1] (setting [12]). In the data set with VeroE6 cells, the “intracellular concentrations in VeroE6 cells” value was “higher than those of nirmatrelvir”. Further, the CC50 in the data set “in vitro” is over 100 µM.

The molecule `CC(C)(C)[C@H](NC(=O)C(F)(F)F)C(=O)N1C[C@H]2[C@@H]([C@H]1C(=O)N[C@@H](C[C@@H]1CCNC1=O)C(=O)c1nc3cccc(F)c3s1)C2(C)C` [TKB252] came in with a half-inhibitory concentration (IC50) against SARS-CoV-2 M^pro of 200 ± 50 nM. Moreover, the EC50 in the data set with SARS-CoV-2^WK-521 [1] (setting [11]) worked out at 62 ± 26 nM; with SARS-CoV-2^BQ.1.1, 57 ± 23 nM. The molecule further had a CC50 at 3 days in the data set “in vitro” of over 100 µM.

In the case of `Nc1ccc2cc3ccccc3cc2c1` [Compound 2AA, 2-Aminoanthracene], the results for the “Number of colonies / plate” value in the data set on TA1535 (Salmonella typhimurium) and with WP2 uvrA were 15.3 ± 1.2 colonies / plate and 49.0± 7.9 colonies / plate, respectively.

Consider `NC(=O)C(=Cc1ccc([N+](=O)[O-])o1)c1ccco1` [AF-2, 2-(2-Furyl)-3-(5-nitro-2-furyl)acrylamide], for which the “Number of colonies / plate” value in the data set with TA100 worked out at 29.0 ± 4. colonies / plate; with WP2 uvrA, 10.7± 3.1 colonies / plate; in the data set on TA98 it was 22.7 ± 3.1 colonies / plate.

With `CC(C)C(=O)OC[C@H]1O[C@@H](n2ccc(NO)nc2=O)[C@H](O)[C@@H]1O` [molnupiravir, reference compound], in the data set on SARS-CoV-2^WK-521 [1] (setting [10]), the EC50 is 840 nM.

As to Nirmatrelvir + Ritonavir, in the data set with SARS-CoV-2^XBB1.5, the “Lungs Virus titer” value is on record as 5.2 Log10(PFU/g) and the “Nasal turbinates Virus titer” value was 2.4 Log10(PFU/g).

Regarding `CC(C)(C)[C@H](NC(=O)C(F)(F)F)C(=O)N1C[C@H]2[C@@H]([C@H]1C(=O)N[C@@H](C[C@@H]1CCNC1=O)C(=O)c1nc3ccc(F)cc3s1)C2(C)C` [TKB273], the IC50 against SARS-CoV-2 M^pro is 8.9 ± 4.1 nM. The EC50 with SARS-CoV-2^WK-521 [1] (setting [11]) worked out at 43 ± 24 nM; in the data set on SARS-CoV-2^BQ.1.1, 114 ± 93 nM. The molecule also had a CC50 at 3 days in “in vitro” of over 100 µM.

As to `COc1ccc2nc3cc(Cl)ccc3c(NCCCNCCCl)c2c1` [ICR-191, 2-Methoxy-6-chloro-9-[3-(2-chloroethyl)-aminopropylamino] acridine·2HCl], in the data set on TA1537, the “Number of colonies / plate” value worked out at 37.3± 2.5 colonies / plate.

`CC(C)(C)[C@H](NC(=O)C(F)(F)F)C(=O)N1C[C@H]2[C@@H]([C@H]1C(=O)N[C@@H](C[C@@H]1CCNC1=O)C(=O)c1nc3cc(F)ccc3s1)C2(C)C` [TKB272]: the EC50 in the data set with SARS-CoV-2^WK-521 [1] (setting [9]) was found to be 15.8 ± 8.9 nM; in the data set on SARS-CoV-2^WK-521 [1] (setting [10]), 1 ± 1 nM; in the data set on SARS-CoV-2^WK-521 [1] (setting [11]), 7 ± 1 nM; with SARS-CoV-2^WK-521 [1] (setting [12]), 0.4 nM; in the data set with SARS-CoV-2^BQ.1.1, 2.6 ± 1 nM; in data set [2], 30 nM. In addition, the EC50 in [3] came to 0.031 µM; with SARS-CoV-2^WK-521 [4] it was 2.9 nM. The “effect of 5 mg/mL human AAG on antiviral activity” value in [2] is recorded as “further reduced the activity”. Besides, the IC50 is over 16 µM on human cathepsin L and over 2000 nM with human calpain. Moreover, the “inhibition of human cathepsin L (target specificity)” value at human cathepsin L was “none of the human cysteine enzymes, cathepsin L or calpain, were appreciably inhibited”. In addition, the “inhibition of human calpain (target specificity)” value in the data set with human calpain is on record as “none of the human cysteine enzymes, cathepsin L or calpain, were appreciably inhibited”. Also, in the data set on SARS-CoV-2^XBB1.5, the “Lungs Virus titer” value is given as 5.1 Log10(PFU/g). Also, the “Nasal turbinates Virus titer” value with SARS-CoV-2^XBB1.5 is 3.2 Log10(PFU/g). Besides, in the data set with VeroE6 cells, the “intracellular concentrations in VeroE6 cells” value is recorded as “higher than those of nirmatrelvir”. The “intracellular concentrations in HeLa^hACE2-TMPRSS2 cells” value in the data set on HeLa^hACE2-TMPRSS2 cells was “greater than those of nirmatrelvir”. Besides, the “intracellular concentrations in human primary nasal epithelial cells” value in data set [6] is recorded as “comparable to nirmatrelvir”. For the same molecule, in data set [7], the “genotoxicity in the micro-Ames test” value is recorded as “no apparent genotoxicity”. Also, the “growth inhibition of bacterial strains in µAmes test” value in data set [7] was “did not inhibit the growth of bacterial strains employed”. Further, the “increase of revertant colonies compared with negative control in µAmes test” value in [7] is “did not increase the number of revertant colonies more than twice”. Moreover, the half-life in the data set “in vivo [5]” is 187 min; in the data set “in vivo [8]”, 202 min. Further, the CC50 in “in vitro” was 98 ± 2.1 µM.
